target: T1, Human BCL6 protein (N-terminal HiBiT tagged BCL6 in HT1080 cells) (Homo sapiens, UniProt P41182+Q96SW2); experiment: HiBiT based BCL6 degradation assay; format: cell-based; conditions: HT1080 cells expressing N-terminal HiBiT tagged BCL6; 5 hours incubation; BCL6 degradation normalized with DMSO control
T1 construct: Human BCL6 protein coding open reading frame; expressed in transfected cells; host or cells: HT1080 (ATCC CCL-121), stably transduced with lentivirus pLV-UBC-N-HiBiT-BCL6-PGK-puro
Text: Human BCL6 protein coding open reading frame fused with N-terminal HiBiT coding sequence was synthesized from Integrated DNA Technologies (IDT). Next, the N-HiBiT-BCL6 sequence was cloned into pLV-UBC-PGK-Puro, a lentivirus plasmid purchased from Vectorbuilder, to generate pLV-UBC-N-HiBiT-BCL6-PGK-puro. Lentiviral particles were generated from Lenti-X™ 293T cells (Clontech) by co-transfection of pLV-UBC-N-HiBiT-BCL6-PGK-puro plasmids and lentiviral packaging plasmid mix (Cellecta). HT1080 [HT1080] (ATCC CCL-121) cells were infected with the lentivirus, and HT1080 cells stably integrated with the lentiviral vectors were established by incubation with 1 μg/mL puromycin (Thermofisher).
HT1080 cells expressing N-terminal HiBiT tagged BCL6 were dispensed into a 384-well plate pre-spotted with compounds at varying concentrations. Five thousand cells were seeded into each well in 40 μL of RPMI 1640 media plus 10% Fetal Bovine Serum (10082-147, Thermofisher). After 5 hours of incubation at 37° C. with 5% CO2, 30 μL of the NANO-GLO® HiBiT Lytic Detection System working solution (Promega) was added to each well and incubated at room temperature for 15 min. After incubation, luminescence was read on a PHERAstar FSX Plate Reader (BMG). BCL6 degradation at each indicated concentration was normalized with DMSO control. The BCL6 degradation curves were plotted using a four-parameter logistic model.

Ymin (5 hr) | SMILES
+ (Ymin > 70%) | CNC(=O)COc1cc2cc(Nc3nc(N4CCC[C@H](CNc5cccc(C6CCC(=O)NC6=O)c5)C4)ncc3Cl)ccc2n(C)c1=O (stereo partly drawn) [Compound 275a, 2-((6-((5-chloro-2-((3R)-3-(((3-(2,6-dioxopiperidin-3-yl)phenyl)amino)methyl)piperidin-1-yl)pyrimidin-4-yl)amino)-1-methyl-2-oxo-1,2-dihydroquinolin-3-yl)oxy)-N-methylacetamide]
++ (50% < Ymin ≤ 70%) | CNC(=O)COc1cc2cc(Nc3nc(N4CCC[C@@H](CNc5cccc(C6CCC(=O)NC6=O)c5)C4)ncc3Cl)ccc2n(C)c1=O (stereo partly drawn) [Compound 275b, 2-((6-((5-chloro-2-((3S)-3-(((3-(2,6-dioxopiperidin-3-yl)phenyl)amino)methyl)piperidin-1-yl)pyrimidin-4-yl)amino)-1-methyl-2-oxo-1,2-dihydroquinolin-3-yl)oxy)-N-methylacetamide]
+ (Ymin > 70%) | CNC(=O)COc1cc2cc(Nc3nc(NC[C@H]4CC[C@H](Nc5ccc(C6CCC(=O)NC6=O)cc5)CC4)ncc3Cl)ccc2n(C)c1=O (stereo partly drawn) [Compound 277a, 2-((6-((5-chloro-2-((((1r,4r)-4-((4-(2,6-dioxopiperidin-3-yl)phenyl)amino)cyclohexyl)methyl)amino)pyrimidin-4-yl)amino)-1-methyl-2-oxo-1,2-dihydroquinolin-3-yl)oxy)-N-methylacetamide]
++ (50% < Ymin ≤ 70%) | CNC(=O)COc1cc2cc(Nc3nc(NC[C@H]4CC[C@@H](Nc5ccc(C6CCC(=O)NC6=O)cc5)CC4)ncc3Cl)ccc2n(C)c1=O (stereo partly drawn) [Compound 277b, 2-((6-((5-chloro-2-((((1s,4s)-4-((4-(2,6-dioxopiperidin-3-yl)phenyl)amino)cyclohexyl)methyl)amino)pyrimidin-4-yl)amino)-1-methyl-2-oxo-1,2-dihydroquinolin-3-yl)oxy)-N-methylacetamide]
++ (50% < Ymin ≤ 70%) | CNC(=O)COc1cc2cc(Nc3nc(N4CCC[C@H]4CNc4ccc5c(C6CCC(=O)NC6=O)nn(C)c5c4)ncc3Cl)ccc2n(C)c1=O (stereo partly drawn) [Compound 279a, 2-((6-((5-chloro-2-((2S)-2-(((3-(2,6-dioxopiperidin-3-yl)-1-methyl-1H-indazol-6-yl)amino)methyl)pyrrolidin-1-yl)pyrimidin-4-yl)amino)-1-methyl-2-oxo-1,2-dihydroquinolin-3-yl)oxy)-N-methylacetamide]
+++ (25% < Ymin ≤ 50%) | CNC(=O)COc1cc2cc(Nc3nc(N4CCC[C@@H]4CNc4ccc5c(C6CCC(=O)NC6=O)nn(C)c5c4)ncc3Cl)ccc2n(C)c1=O (stereo partly drawn) [Compound 279b, 2-((6-((5-chloro-2-((2R)-2-(((3-(2,6-dioxopiperidin-3-yl)-1-methyl-1H-indazol-6-yl)amino)methyl)pyrrolidin-1-yl)pyrimidin-4-yl)amino)-1-methyl-2-oxo-1,2-dihydroquinolin-3-yl)oxy)-N-methylacetamide]
++ (50% < Ymin ≤ 70%) | CNC(=O)COc1cc2cc(Nc3nc(N4CCC[C@H](Nc5ccc6c(C7CCC(=O)NC7=O)nn(C)c6c5)C4)ncc3Cl)ccc2n(C)c1=O (stereo partly drawn) [Compound 280a, 2-((6-((5-chloro-2-((3S)-3-((3-(2,6-dioxopiperidin-3-yl)-1-methyl-1H-indazol-6-yl)amino)piperidin-1-yl)pyrimidin-4-yl)amino)-1-methyl-2-oxo-1,2-dihydroquinolin-3-yl)oxy)-N-methylacetamide]
+ (Ymin > 70%) | CNC(=O)COc1cc2cc(Nc3nc(N4CCC[C@@H](Nc5ccc6c(C7CCC(=O)NC7=O)nn(C)c6c5)C4)ncc3Cl)ccc2n(C)c1=O (stereo partly drawn) [Compound 280b, 2-((6-((5-chloro-2-((3R)-3-((3-(2,6-dioxopiperidin-3-yl)-1-methyl-1H-indazol-6-yl)amino)piperidin-1-yl)pyrimidin-4-yl)amino)-1-methyl-2-oxo-1,2-dihydroquinolin-3-yl)oxy)-N-methylacetamide]

Second part, the molecule before the results:

SMILES | Ymin (5 hr)
CNC(=O)COc1cc2cc(Nc3nc(N4CCC(CNc5ccc(C6CCC(=O)NC6=O)cc5)CC4)ncc3Cl)ccc2n(C)c1=O (stereo not drawn) [Compound 265, 2-((6-((5-chloro-2-(4-(((4-(2,6-dioxopiperidin-3-yl)phenyl)amino)methyl)piperidin-1-yl)pyrimidin-4-yl)amino)-1-methyl-2-oxo-1,2-dihydroquinolin-3-yl)oxy)-N-methylacetamide] | ++ (50% < Ymin ≤ 70%)
CNC(=O)COc1cc2cc(Nc3nc(N4CCC[C@@H](CNc5cccc6c(C7CCC(=O)NC7=O)nn(C)c56)C4)ncc3Cl)ccc2n(C)c1=O (stereo partly drawn) [Compound 266a, 2-((6-((5-chloro-2-((3S)-3-(((3-(2,6-dioxopiperidin-3-yl)-1-methyl-1H-indazol-7-yl)amino)methyl)piperidin-1-yl)pyrimidin-4-yl)amino)-1-methyl-2-oxo-1,2-dihydroquinolin-3-yl)oxy)-N-methylacetamide] | ++ (50% < Ymin ≤ 70%)
CNC(=O)COc1cc2cc(Nc3nc(N4CCC[C@H](CNc5cccc6c(C7CCC(=O)NC7=O)nn(C)c56)C4)ncc3Cl)ccc2n(C)c1=O (stereo partly drawn) [Compound 266b, 2-((6-((5-chloro-2-((3R)-3-(((3-(2,6-dioxopiperidin-3-yl)-1-methyl-1H-indazol-7-yl)amino)methyl)piperidin-1-yl)pyrimidin-4-yl)amino)-1-methyl-2-oxo-1,2-dihydroquinolin-3-yl)oxy)-N-methylacetamide] | ++ (50% < Ymin ≤ 70%)
CNC(=O)COc1cc2cc(Nc3nc(N4CCC(CC5CCN(c6cccc7c(C8CCC(=O)NC8=O)nn(C)c67)CC5)CC4)ncc3Cl)ccc2n(C)c1=O (stereo not drawn) [Compound 281, 2-((6-((5-chloro-2-(4-((1-(3-(2,6-dioxopiperidin-3-yl)-1-methyl-1H-indazol-7-yl)piperidin-4-yl)methyl)piperidin-1-yl)pyrimidin-4-yl)amino)-1-methyl-2-oxo-1,2-dihydroquinolin-3-yl)oxy)-N-methylacetamide] | +++ (25% < Ymin ≤ 50%)
CNC(=O)COc1cc2cc(Nc3nc(N4CCN(C5CN(c6ccc7c(C8CCC(=O)NC8=O)nn(C)c7c6)C5)CC4)ncc3Cl)ccc2n(C)c1=O (stereo not drawn) [Compound 282, 2-((6-((5-chloro-2-(4-(1-(3-(2,6-dioxopiperidin-3-yl)-1-methyl-1H-indazol-6-yl)azetidin-3-yl)piperazin-1-yl)pyrimidin-4-yl)amino)-1-methyl-2-oxo-1,2-dihydroquinolin-3-yl)oxy)-N-methylacetamide] | +++ (25% < Ymin ≤ 50%)
CNC(=O)COc1cc2cc(Nc3nc(N4CCN(C5CN(c6cccc7c(C8CCC(=O)NC8=O)nn(C)c67)C5)CC4)ncc3Cl)ccc2n(C)c1=O (stereo not drawn) [Compound 283, 2-((6-((5-chloro-2-(4-(1-(3-(2,6-dioxopiperidin-3-yl)-1-methyl-1H-indazol-7-yl)azetidin-3-yl)piperazin-1-yl)pyrimidin-4-yl)amino)-1-methyl-2-oxo-1,2-dihydroquinolin-3-yl)oxy)-N-methylacetamide] | +++ (25% < Ymin ≤ 50%)
CNC(=O)COc1cc2cc(Nc3nc(N4CCC(CCNc5ccc(C6CCC(=O)NC6=O)cc5)CC4)ncc3Cl)ccc2n(C)c1=O (stereo not drawn) [Compound 284, 2-((6-((5-chloro-2-(4-(2-((4-(2,6-dioxopiperidin-3-yl)phenyl)amino)ethyl)piperidin-1-yl)pyrimidin-4-yl)amino)-1-methyl-2-oxo-1,2-dihydroquinolin-3-yl)oxy)-N-methylacetamide] | ++ (50% < Ymin ≤ 70%)
CNC(=O)COc1cc2cc(Nc3nc(N4CCC(C5CN(c6cccc7c(C8CCC(=O)NC8=O)nn(C)c67)C5)CC4)ncc3Cl)ccc2n(C)c1=O (stereo not drawn) [Compound 286, 2-((6-((5-chloro-2-(4-(1-(3-(2,6-dioxopiperidin-3-yl)-1-methyl-1H-indazol-7-yl)azetidin-3-yl)piperidin-1-yl)pyrimidin-4-yl)amino)-1-methyl-2-oxo-1,2-dihydroquinolin-3-yl)oxy)-N-methylacetamide] | +++ (25% < Ymin ≤ 50%)
CNC(=O)COc1cc2cc(Nc3nc(N4CCC(OC5CCN(c6ccc7c(C8CCC(=O)NC8=O)nn(C)c7c6)CC5)CC4)ncc3Cl)ccc2n(C)c1=O (stereo not drawn) [Compound 287, 2-((6-((5-chloro-2-(4-((1-(3-(2,6-dioxopiperidin-3-yl)-1-methyl-1H-indazol-6-yl)piperidin-4-yl)oxy)piperidin-1-yl)pyrimidin-4-yl)amino)-1-methyl-2-oxo-1,2-dihydroquinolin-3-yl)oxy)-N-methylacetamide] | +++ (25% < Ymin ≤ 50%)
CNC(=O)COc1cc2cc(Nc3nc(N4CCC(CC5CCN(c6ccc7c(C8CCC(=O)NC8=O)nn(C)c7c6)CC5)CC4)ncc3Cl)ccc2n(C)c1=O (stereo not drawn) [Compound 288, 2-((6-((5-chloro-2-(4-((1-(3-(2,6-dioxopiperidin-3-yl)-1-methyl-1H-indazol-6-yl)piperidin-4-yl)methyl)piperidin-1-yl)pyrimidin-4-yl)amino)-1-methyl-2-oxo-1,2-dihydroquinolin-3-yl)oxy)-N-methylacetamide] | +++ (25% < Ymin ≤ 50%)

From patent US20250270191A1, “QUINOLONE BCL6 BIFUNCTIONAL DEGRADERS” (Treeline Biosciences, Inc., priority 2022, published 2025)
